Measurements from patent US20030022878A1, “TELOMERASE INHIBITOR” (priority 1997, published 2003).
Values joined by “and” are separate entries in the source; they are usually repeats but may differ in a detail not shown here. Identical values can stand only once.

Legend:
telomerase = molecular target: T1, telomerase (Homo sapiens, UniProt O14746); assay: Telomerase inhibiting activity in cell-free system (TRAP method); assay type: biochemical
T1 construct: the resulting extract was centrifuged to obtain the supernatant as a cell extract for activity measurement; endogenous in cells
Experimental: Telomerase inhibiting activity of EGCG, EGC, ECG, and EC (all products of Sigma) was measured according to the Telomeric Repeat Amplification Protocol (TRAP) method described by Kim et al. (Kim, N. W. et al., Science, 266, 2011-2015, 1994) as follows:
Cells were washed with ice-cold PBS (phosphate buffered saline) and suspended again in PBS to count the cells. After centrifuging this cell suspension, the resulting cell mass was suspended in a TRAP assay buffer (10 mM Tris-HCl, pH 7.5, 1 mM MgCl2, 1 mM EDTA, 0.5% CHAPS, 10% glycerine, 5 mM 2-mercaptoethanol, and 0.1 mM 4-(2-aminoethyl)-benzenesulfonyl fluoride hydrochlorine), then the suspension was quick-frozen with liquid nitrogen. After melting, the suspension was allowed to stand in an ice bath for 30 minutes for extraction, then the resulting extract was centrifuged to obtain the supernatant as a cell extract for activity measurement. […]
The PCR products obtained in the abovementioned procedure were resolved by polyacrylamide gel electrophoresis and the resulting DNA bands stained with SYBR Green (Takara Shuzo) were detected by irradiation with a UV transilluminator.
The detected bands were photographed. The intensity of each band was quantitatively analyzed using the NIH Image 1.60 software program. Telomerase activity was expressed as the intensity of a sample band relative to that of the band corresponding to the ITAS fragment (control).
Telomerase activity in reaction solutions of 8 different EGCG concentrations ranging from 0.1 to 20 μM was measured in the same manner as described in Example 1 except that a primer, PS, was used at two different concentrations. […]
Telomerase activity in reaction solutions containing powder sample 1 obtained in Production Example 1, powder sample 2 (a tea catechin extract: THEA-FLAN 90S, a trade name, a product of ITO EN, Ltd), and EGCG at different concentrations in the following ranges was measured in the same manner as described in Example 1. […]

[1] = molecular target: T2, intracellular telomerase activity, colon adenocarcinoma HT29 cells (Homo sapiens, UniProt O14746); assay: Telomerase inhibiting activity in cells (Streptolysin O permeabilization, TRAP); assay type: cell-based; conditions: 15 μM EGCG for 2 hours
T2 construct: endogenous in cells; host or cells: HT29
Experimental: (§1) The telomerase inhibiting activity of EGCG was assayed in monoblastoid leukemia U937 cells (American Type Culture Collection, ATCC) and colon adenocarcinoma HT29 cells.
(§2) An RPMI1640 medium (Nissui) supplemented with 10% fetal bovine serum (FBS) was used for U937 cells, and an RPMI1640 medium supplemented with 5% FBS and 5% fetal calf serum (FCS) was used for HT29 cells.
(§3) The cells were incubated in a 15 μM EGCG solution for 2 hours and washed in PBS. The washed cells were suspended in an RPMI1640 medium (without serum) at a concentration of 2×10^6 cells/ml, then Streptolysin O (Sigma, 5 U/ml), TS primer (10 μM), spermidine (1 mM), and Imipramine (50 μM) were added, and the admixture was incubated at room temperature for 10 minutes. Streptolysin O is a substance which increases the permeability of a substance through the cell membrane, and enables the TS primers and other substances to be incorporated into the cell. […]
(§4) The telomerase products thus obtained were resolved by polyacrylamide gel electrophoresis, after which DNA bands were stained with SYBR Green (Takara Shuzo) and detected by irradiation with a UV transilluminator. The intensity of each band was quantitatively analyzed using the NIH Image 1.60 software program and telomerase activity was expressed as the intensity of a sample band relative to that of the band corresponding to the ITAS fragment (control). […]

[2] = molecular target: T3, intracellular telomerase activity, monoblastoid leukemia U937 cells (Homo sapiens, UniProt O14746); assay: as above; assay type: cell-based; conditions: 15 μM EGCG for 2 hours
T3 construct: endogenous in cells; host or cells: U937
Experimental: as §1, §2, §3, §4

telomerase, HT29 cells = molecular target: T4, telomerase, HT29 cells (Homo sapiens, UniProt O14746); assay: Telomerase activity in extract of EGCG-treated cells (mechanism); assay type: cell-based; conditions: 15 μM EGCG for 2 hours, washed, extracted
T4 construct: endogenous in cells; host or cells: HT29
Experimental: (§5) The cells were treated with 15 μM EGCG for 2 hours and washed with ice-cold PBS. The cell mass obtained by centrifugation was suspended in a TRAP assay buffer and the resulting suspension was quick-frozen with liquid nitrogen. After melting, the suspension was allowed to stand in an ice bath for 30 minutes, then the resulting extract was centrifuged to obtain the supernatant as a cell extract. A test compound, TS primer (50 ng), 50 μM dNTPs, and T4g32 protein (Behringer-Manheim) were added to a specified volume of the cell extract (corresponding to 200 to 1000 cells), and the admixture was incubated at 20° C. for 30 minutes. After reaction, CX primer (100 ng) was added to the reaction solution, then PCR was performed in the presence of Gene Taq DNA polymerase (2 U) and ITAS (10^−18 g), i.e., (94° C., 40 seconds→50° C., 40 seconds→72° C., 60 seconds)×30 cycles→72° C., 2 minutes, to obtain PCR products. The PCR products thus obtained were resolved by polyacrylamide gel electrophoresis and the resulting DNA bands stained with SYBR Green (Takara Shuzo) were detected by irradiation with a UV transilluminator. The intensity of each band was quantitatively analyzed using the NIH Image 1.60 software program. Telomerase activity was expressed as the intensity of a sample band relative to that of the band corresponding to the ITAS fragment. […]

telomerase, U937 cells = molecular target: T5, telomerase, U937 cells (Homo sapiens, UniProt O14746); assay: as above; assay type: cell-based; conditions: 15 μM EGCG for 2 hours, washed, extracted
T5 construct: endogenous in cells; host or cells: U937
Experimental: as §5

HT29 cells [3] = assay: Effect of EGCG on cell growth in subculture; assay type: cell-based; conditions: HT29 subculture lines, medium with 15 μM EGCG
Experimental: (§6) U937 cells and HT29 cells were each subcultured on a medium with and without EGCG to study the effect of addition of EGCG on cell growth. The medium used was the same as used in Example 4. Five subculture lines for U937 cells and nine subculture lines for HT29 cells were prepared. The first culture of each line was made by inoculating cells of each stock culture at a density of 5×10^5 cells per 10-cm dish. For each subculture, two lines were cultured on a medium without EGCG (control lines) and the rest of the lines were cultured on a medium supplemented with 15 μM EGCG. Cells were passaged, sampled and counted every four days. The incubation medium was freshly changed every day. […] PD is the number of cycles in which the cell population doubles during cell growth and is calculated by monitoring cell counts using a hemocytometer.

U937 cells = assay: Effect of EGCG on cell growth in subculture; assay type: cell-based; conditions: U937 subculture lines, medium with 15 μM EGCG
Experimental: as §6

HT29 cells [4] = assay: TRF (telomere) length by Southern blotting; assay type: cell-based; conditions: HT29 cells in crisis, 15 μM EGCG
Experimental: HT 29 cells from PD57 to PD60 in cell crisis were pooled and the genomic DNA was prepared by a salting-out/ethanol precipitation method (Stratagene). Further, integrity of the isolated genomic DNA was confirmed by gel electrophoresis (ethidium bromide staining).
The isolated genomic DNA (10 μg) was digested with HinfI and RsaI and the resulting digests were subjected to Southern blotting by the ordinary method, after which DNA fragments were detected using a TeloQuant assay kit (PharmMingen).
Accordingly, if a genomic DNA is digested with the abovementioned restriction enzymes, only the telomere region would remain undigested. This DNA fragment is called the Terminal Restriction Fragment (TRF) which can be detected by Southern blotting to analyze telomere lengths. TRFs of EGCG-treated or untreated HT29 cells obtained as mentioned above were detected using a TeloQuant assay kit. […] It was observed that TRFs in the cells which entered crisis due to the EGCG treatment (●) were shortened by about 1.1 kb as compared to those in the untreated cells (◯). Further, it was confirmed that successive EGCG treatment of HT29 cells caused telomere diminishment.

[5] = tested on: experimentally-induced tumors; conditions: nude mice with experimentally-induced tumors; cited from earlier work
malignant melanoma cells = conditions: oral administration; cited from earlier work

T1 sequence (O14746 whole entry): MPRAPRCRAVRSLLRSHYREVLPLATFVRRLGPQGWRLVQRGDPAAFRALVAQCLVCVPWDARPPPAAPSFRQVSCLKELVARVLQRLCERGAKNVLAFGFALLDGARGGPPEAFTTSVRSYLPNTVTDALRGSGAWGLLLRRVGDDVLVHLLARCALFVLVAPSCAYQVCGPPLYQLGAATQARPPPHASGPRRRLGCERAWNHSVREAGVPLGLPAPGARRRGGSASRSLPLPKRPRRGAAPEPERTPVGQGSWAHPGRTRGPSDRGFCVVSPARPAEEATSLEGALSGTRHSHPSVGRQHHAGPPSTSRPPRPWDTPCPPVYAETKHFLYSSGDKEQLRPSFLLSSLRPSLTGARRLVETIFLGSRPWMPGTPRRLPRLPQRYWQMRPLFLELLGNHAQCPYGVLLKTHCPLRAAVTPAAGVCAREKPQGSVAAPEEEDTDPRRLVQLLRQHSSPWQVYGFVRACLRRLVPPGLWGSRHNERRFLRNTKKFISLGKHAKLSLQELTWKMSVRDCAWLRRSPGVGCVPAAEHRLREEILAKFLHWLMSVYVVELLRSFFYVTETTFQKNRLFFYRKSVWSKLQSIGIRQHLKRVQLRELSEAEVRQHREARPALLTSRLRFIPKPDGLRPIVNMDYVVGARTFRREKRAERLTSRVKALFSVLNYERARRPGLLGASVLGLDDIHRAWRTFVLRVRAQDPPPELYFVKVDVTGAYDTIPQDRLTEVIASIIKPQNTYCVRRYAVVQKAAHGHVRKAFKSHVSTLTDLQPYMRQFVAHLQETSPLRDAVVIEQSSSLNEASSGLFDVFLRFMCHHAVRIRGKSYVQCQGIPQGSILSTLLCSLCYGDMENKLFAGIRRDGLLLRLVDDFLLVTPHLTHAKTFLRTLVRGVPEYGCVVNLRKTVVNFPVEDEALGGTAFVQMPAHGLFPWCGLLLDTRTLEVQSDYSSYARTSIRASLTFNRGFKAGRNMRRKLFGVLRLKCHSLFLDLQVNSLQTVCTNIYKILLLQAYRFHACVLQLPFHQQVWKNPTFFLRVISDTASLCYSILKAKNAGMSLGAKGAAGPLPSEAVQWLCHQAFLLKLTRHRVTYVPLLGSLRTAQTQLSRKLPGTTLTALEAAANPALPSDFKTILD
T4 sequence (O14746 whole entry): as above
T3 sequence (O14746 whole entry): as above
T2 sequence (O14746 whole entry): as above
T5 sequence (O14746 whole entry): as above

Substance: (−) epigallocatechin gallate [EGCG]
- Ki (telomerase; Dixon plot, EGCG 0.1 to 20 μM, primer at two concentrations): ~100 nM
- telomerase inhibiting activity compared among catechins (FIG. 1) (telomerase; TRAP, cell extract): highest inhibiting activity
- Telomerase inhibition, IC50 (telomerase; concentration suppressing DNA amplification of control by 50%, samples tested in μg/ml ranges): 0.25
- intracellular telomerase activity [1]: markedly inhibited
- intracellular telomerase activity [2]: markedly inhibited
- telomerase activity tested in vitro in extract after treatment of cells (telomerase, HT29 cells): no effect
- telomerase activity tested in vitro in extract after treatment of cells (telomerase, U937 cells): no effect
- day at which cells entered cell crisis (HT29 cells [3]): 75 days and 57 days
- day at which cells entered cell crisis (U937 cells): 53 days and 44 days and 29 days
- shortening of TRFs compared to untreated cells (HT29 cells [4]): about 1.1 kb
- cancer cell growth in nude mice [5]: effectively suppressed
- metastasis of malignant melanoma cells (malignant melanoma cells): suppressed
